Reference: patent publication US10030006B2, “Coumarin based Hsp90 inhibitors with urea and ether substituents” (University of Kansas, priority 2013, dated 2018)
Read-outs that look alike come from different tables or passages of the source.

What was measured:
Format in all cases: cell-based
[1] = system: SKBr3 (estrogen receptor negative, Her2 over-expressing breast cancer cells); experiment: Anti-proliferation assay (MTS/PMS, 72 h), SKBr3
Protocol: (§1) Cells were maintained in a 1:1 mixture of Advanced DMEM/F12 (Gibco) supplemented with non-essential amino acids, L-glutamine (2 mM), streptomycin (500 μg/mL), penicillin (100 units/mL), and 10% FBS. Cells were grown to confluence in a humidified atmosphere (37° C., 5% CO2), seeded (2000/well, 100 μL) in 96-well plates, and allowed to attach overnight. Compound at varying concentrations in DMSO (1% DMSO final concentration) was added, and cells were returned to the incubator for 72 h. At 72 h, the number of viable cells was determined using an MTS/PMS cell proliferation kit (Promega) per the manufacturer's instructions. Cells incubated in 1% DMSO were used at 100% proliferation, and values were adjusted accordingly. IC50 values were calculated from separate experiments performed in triplicate using GraphPad Prism.
(§2) The anti-proliferative activity of these compounds is evaluated against two breast cancer cell lines, SKBr3 (estrogen receptor negative, Her2 over-expressing breast cancer cells) and MCF-7 (estrogen receptor positive breast cancer cells).

[2] = system: MCF-7 (estrogen receptor positive breast cancer cells); experiment: Anti-proliferation assay (MTS/PMS, 72 h), MCF-7
Protocol: as §1, §2

[3] = system: PC-3; experiment: Anti-proliferation assay, PC-3; conditions: Table 9, non-aryl ureas; Prostate Cancer
Protocol: as §1

[4] = system: MDA1986; experiment: Anti-proliferation assay, MDA1986; conditions: Table 9, non-aryl ureas; HSNCC
Protocol: as §1

[5] = system: MDAMB231; experiment: Anti-proliferation assay, MDAMB231; conditions: Table 9, non-aryl ureas; Tri-Neg
Protocol: as §1

[6] = system: A-549; experiment: Anti-proliferation assay, A-549; conditions: Table 9, non-aryl ureas
Protocol: as §1

[7] = system: JMAR; experiment: Anti-proliferation assay, JMAR; conditions: Table 9, non-aryl ureas; HSNCC
Protocol: as §1

[8] = system: DRO81-1; experiment: Anti-proliferation assay, DRO81-1; conditions: Table 9, non-aryl ureas; Thyroid
Protocol: as §1

[9] = system: HCT-116; experiment: Anti-proliferation assay, HCT-116; conditions: Table 9, non-aryl ureas
Protocol: as §1

[10] = Homo sapiens, SK-BR-3, Table 5, alkylether derivatives with cyclic N-substitutions, read-out: SKBr3
[11] = Homo sapiens, MCF7, Table 5, alkylether derivatives with cyclic N-substitutions, read-out: MCF-7
[12] = Homo sapiens, SK-BR-3, Table 8, biphenyl ureas, Breast Cancer, read-out: IC50 SKBr3
[13] = Homo sapiens, MCF7, Table 8, biphenyl ureas, Breast Cancer, read-out: IC50 MCF-3
[14] = Table 3, cycloamine analogues, read-out: SKBr3
[15] = Table 3, cycloamine analogues, read-out: MCF-7

With `CC(C)=CCc1cc(C(=O)Nc2cc3ccc(OCCCNC4CCCCC4)c(C)c3oc2=O)ccc1O` [Compound 70a, N-(7-(3-(cyclohexylamino)propoxy)-8-methyl-2-oxo-2H-chromen-3-yl)-4-hydroxy-3-(3-methylbut-2-en-1-yl)benzamide] as the molecule, how does the IC50 [1, 10] read?
The IC50 was 0.66 ± 0.12 µM.

What about the IC50 [2, 11] of the same molecule?
Its IC50 is 1.07 ± 0.35 µM.

Which IC50 ([1]; Table 5, alkylether derivatives with cyclic N-substitutions, read-out: SKBr3) does the source give for `CC(C)=CCc1cc(C(=O)Nc2cc3ccc(OCCCN(C)C4CCCCC4)c(C)c3oc2=O)ccc1O` [Compound 70b] here?
The IC50 was 0.97 ± 0.03 µM.

And the IC50 ([2]; Table 5, alkylether derivatives with cyclic N-substitutions, read-out: MCF-7)?
Its IC50 is 1.08 ± 0.07 µM.

Which IC50 [1, 10] does the source give for `CC(C)=CCc1cc(C(=O)Nc2cc3ccc(OCCCNCc4ccccc4)c(C)c3oc2=O)ccc1O` [Compound 70e, N-(7-(3-(benzylamino)propoxy)-8-methyl-2-oxo-2H-chromen-3-yl)-4-hydroxy-3-(3-methylbut-2-en-1-yl)benzamide] here?
The IC50 was 0.47 ± 0.16 µM.

What about the IC50 [2, 11] of the same molecule?
The IC50 was 0.91 ± 0.01 µM.

Which IC50 [1, 10] does the source give for `CC(C)=CCc1cc(C(=O)Nc2cc3ccc(OCCCN(C)[C@H](C)c4ccccc4)c(C)c3oc2=O)ccc1O` [Compound 70f, (R)-4-hydroxy-N-(8-methyl-7-(3-(methyl(1-phenylethyl)amino)propoxy)-2-oxo-2H-chromen-3-yl)-3-(3-methylbut-2-en-1-yl)benzamide] here?
Its IC50 is 1 ± 0.31 µM.

What about the IC50 [2, 11] of the same molecule?
The IC50 was 1.45 ± 0.2 µM.

What does the source list for `CC(C)=CCc1cc(C(=O)Nc2cc3ccc(OCCCNC(C)(C)c4ccccc4)c(C)c3oc2=O)ccc1O` [Compound 70g, 4-hydroxy-N-(8-methyl-2-oxo-7-(3-((2-phenylpropan-2-yl)amino)propoxy)-2H-chromen-3-yl)-3-(3-methylbut-2-en-1-yl)benzamide]?
IC50 [1, 10]: 0.96 ± 0.01 µM; IC50 [2, 11]: 1.07 ± 0.01 µM

For `CC(C)=CCc1cc(C(=O)Nc2cc3ccc(OCCCNC4C[C@H]5CC[C@@H]4C5)c(C)c3oc2=O)ccc1O` (stereo partly drawn) [Compound 70i, N-(7-(3-((1R,4S)-bicyclo[2.2.1]heptan-2-ylamino)propoxy)-8-methyl-2-oxo-2H-chromen-3-yl)-4-hydroxy-3-(3-methylbut-2-en-1-yl)benzamide], which IC50 [1, 10] is on record?
The IC50 was 0.77 ± 0.13 µM.

What about the IC50 [2, 11] of the same molecule?
The IC50 was 1.03 ± 0.12 µM.

With `Cc1c(OC2CCN(C)CC2)ccc2cc(NC(=O)Nc3cccc(-c4ccccc4)c3)c(=O)oc12` [H, H, 1-([1,1′-biphenyl]-3-yl)-3-(8-methyl-7-((1-methylpiperidin-4-yl)oxy)-2-oxo-2H-chromen-3-yl)urea] as the molecule, how does the IC50 [1, 12] read?
The IC50 was 0.38 µM.

And the IC50 [2, 13]?
The IC50 was 0.32 µM.

`COc1cccc(-c2cccc(NC(=O)Nc3cc4ccc(OC5CCN(C)CC5)c(C)c4oc3=O)c2)c1` [H, OMe, 1-(3′-methoxy-[1,1′-biphenyl]-3-yl)-3-(8-methyl-7-((1-methylpiperidin-4-yl)oxy)-2-oxo-2H-chromen-3-yl)urea] was tested. Which IC50 [1, 12] did it give?
Its IC50 is 0.44 µM.

What about the IC50 [2, 13] of the same molecule?
Its IC50 is 0.37 µM.

Which IC50 [1, 12] does the source give for `COc1ccc(NC(=O)Nc2cc3ccc(OC4CCN(C)CC4)c(C)c3oc2=O)cc1-c1ccccc1` [OMe, H, 1-(6-methoxy-[1,1′-biphenyl]-3-yl)-3-(8-methyl-7-((1-methylpiperidin-4-yl)oxy)-2-oxo-2H-chromen-3-yl)urea] here?
The IC50 was 0.45 µM.

What about the IC50 [2, 13] of the same molecule?
The IC50 was 0.93 µM.

Which results are given for `CC(C)=CCc1cc(C(=O)Nc2cc3ccc(OCCCN4CCN(C)CC4)c(C)c3oc2=O)ccc1O` [drawing 143]?
IC50 [1, 14]: 1.01 ± 0.03 µM; IC50 [2, 15]: 1.2 ± 0.12 µM

What does the source list for `CC(C)=CCc1cc(C(=O)Nc2cc3ccc(OCCCN4CCOCC4)c(C)c3oc2=O)ccc1O` [drawing 145]?
IC50 [1, 14]: > 50 µM; IC50 [2, 15]: > 50 µM

What does the source list for `CC(C)=CCc1cc(C(=O)Nc2cc3ccc(OCCCN4CCCCC4)c(C)c3oc2=O)ccc1O` [drawing 146]?
IC50 [1, 14]: > 50 µM; IC50 [2, 15]: > 50 µM

Which results are given for `CC(C)=CCc1cc(C(=O)Nc2cc3ccc(OCCCN4CCCC4)c(C)c3oc2=O)ccc1O` [drawing 147]?
IC50 [1, 14]: 0.72 ± 0.01 µM; IC50 [2, 15]: 0.99 ± 0.04 µM

Which IC50 [3] does the source give for `Cc1c(OC2CCN(C)CC2)ccc2cc(NC(=O)NC3CCCC3)c(=O)oc12` [drawing 154] here?
The IC50 was 2.16 ± 1.17 µM.

And the IC50 [4]?
Its IC50 is > 25 µM.

And the IC50 [5]?
Its IC50 is 0.65 µM.

What about the IC50 ([1]; Table 9, non-aryl ureas, Breast Cancer, read-out: IC50 SKBr3) of the same molecule?
The IC50 was 2.39 ± 0.35 µM.

And the IC50 ([2]; Table 9, non-aryl ureas, Breast Cancer, read-out: IC50 MCF-3)?
Its IC50 is 3.83 ± 0.33 µM.

What about the IC50 [6] of the same molecule?
Its IC50 is 1.24 ± 0.94 µM.

And the IC50 [7]?
Its IC50 is > 25 µM.

And the IC50 [8]?
Its IC50 is 8.8 µM.

What about the IC50 [9] of the same molecule?
Its IC50 is 7.87 ± 7.97 µM.
